“Also recorded” adds a separate entry of the source. Read-outs that look alike come from different tables or passages of the source.
How the values were obtained:
EBOV-eGFP = assay type: cell-based
EBOV VP30 = assay type: cell-based
HIV-1 = assay: Inhibition of HIV-1 replication; assay type: cell-based
EBOV transcription = assay type: cell-based
[1] = Control cell viability assays (FIG. 18)
[2] = test system: Tat-driven nuclear localization of PP1α; assay type: cell-based
CEM cells [3] = assay: cells; details: Homo sapiens, CCRF-CEM
[4] = test system: Tat-induced HIV transcription in 293T cells; assay: Tat-induced HIV transcription in 293T cells transfected with HIV-1 LTR reporter and Tat vectors; assay type: cell-based
[5] = test system: HIV-1 transcription in CEM-GFP cells; assay: Tat-dependent HIV-1 transcription LTR-GFP reporter assay in CEM-GFP cells infected with Ad-Tat; assay type: cell-based
[6] = target: PP1 association with NIPP1, PNUTS and Tat (Homo sapiens, UniProt P62136); assay type: cell-based
CEM cells [7] = test system: CEM cells
[8] = test system: interaction of Tat with PP1α; assay type: cell-based; details: 10 μM, 293T cells
PP1α = PP1α (Homo sapiens, UniProt P62136); assay: Dephosphorylation of generic KT(pT)IRR peptide by recombinant PP1α (malachite green); assay type: biochemical
293T cells = assay: Global cellular proteome of 293T cells by LC-MS-MS; details: 10 μM for 18 h
[9] = Human immunodeficiency virus 1; read-out: 50% Inhibition of HIV-1 replication
[10] = read-out: Toxicity in CEM cells, IC50
[11] = Human immunodeficiency virus 1, CEM-GFP, 48 h, read-out: Inhibition of HIV-1 Transcription in CEM-GFP cells (IC50, μM)
[12] = read-out: Toxicity in CEM cells, (IC50, μM)

Chain of PP1α (P62136 whole entry): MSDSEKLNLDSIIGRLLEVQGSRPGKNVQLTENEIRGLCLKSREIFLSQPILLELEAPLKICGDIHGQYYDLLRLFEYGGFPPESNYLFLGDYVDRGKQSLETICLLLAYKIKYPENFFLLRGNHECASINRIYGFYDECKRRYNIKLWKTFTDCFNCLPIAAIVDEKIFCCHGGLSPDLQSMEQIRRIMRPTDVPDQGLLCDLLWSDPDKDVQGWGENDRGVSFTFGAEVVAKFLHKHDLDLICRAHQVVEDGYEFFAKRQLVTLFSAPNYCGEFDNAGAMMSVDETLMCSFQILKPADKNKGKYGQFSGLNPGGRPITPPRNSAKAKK
Chain of PP1 association with NIPP1, PNUTS and Tat (P62136 2-330 limits assumed): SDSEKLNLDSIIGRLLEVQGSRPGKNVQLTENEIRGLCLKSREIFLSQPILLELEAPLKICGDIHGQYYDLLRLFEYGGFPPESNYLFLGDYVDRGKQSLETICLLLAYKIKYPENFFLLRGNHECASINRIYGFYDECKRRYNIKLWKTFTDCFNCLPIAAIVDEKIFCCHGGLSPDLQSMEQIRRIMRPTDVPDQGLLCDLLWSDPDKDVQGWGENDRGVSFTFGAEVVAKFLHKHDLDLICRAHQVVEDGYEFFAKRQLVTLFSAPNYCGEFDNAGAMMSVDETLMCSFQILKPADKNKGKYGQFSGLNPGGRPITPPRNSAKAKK

## CCNC(=O)NC(=O)C(C)OC(=O)c1c2c(nc3ccccc13)/C(=C/c1ccc(OC)c(OC)c1)CC2 (stereo not drawn) [1E7-03]
EBOV-eGFP
  inhibition of EBOV replication: completely suppressed
EBOV VP30
  VP30 phosphorylation: increased
  increase of VP30 phosphorylation: 2.7 fold
HIV-1; FIG. 18
  HIV-1 inhibition: potent HIV-1 inhibitor
HIV-1; [9]
  IC50: 3 µM
EBOV transcription
  EBOV transcription: inhibits EBOV transcription
[1]
  cell viability: maintains the most viability
[2]; fluorescence in nucleus and cytoplasm fractions
  translocation of Tat and PP1 into the nucleus: inhibited
CEM cells [3]; [10]
  IC50: > 20 µM
[4]
  potency in HIV-1 transcription inhibition in 293T cells (comparison): equally potent as 1E7
Vero-E6 cells
  toxicity: without any detectable cytotoxicity

## CCNC(=O)NC(=O)C(C)OC(=O)c1c2c(nc3ccccc13)/C(=C\c1cccs1)CCC2 (stereo not drawn) [1E7-04]
EBOV-eGFP
  inhibition of EBOV replication: highly potent
HIV-1; [9]
  IC50: 3 µM
CEM cells [3]; [10]
  IC50: 7 µM
Vero-E6 cells
  toxicity: some toxicity
  toxicity (cell monolayer, words): visible toxicity

## CC(OC(=O)c1c2c(nc3ccccc13)/C(=C/c1cccs1)CCC2)C(=O)NC1CC1 (stereo not drawn) [1E7-05]
EBOV-eGFP
  inhibition of EBOV replication: highly potent
Vero-E6 cells
  toxicity: some toxicity
  toxicity (cell monolayer, words): visible toxicity

## COCCNC(=O)OC(=O)c1c2c(nc3ccccc13)/C(=C\c1ccc(O)cc1)CCC2 [1H4]
[5]; [11]
  IC50: 12.5 µM
[5]; Human immunodeficiency virus 1, read-out: Inhibition Tat-induced HIV transcription in CEM cells, IC50
  IC50: 10 µM
HIV-1; Human immunodeficiency virus 1, read-out: 50% Inhibition of HIV-1 replication
  IC50: 10 µM
[6]
  Tat association with PP1 (microcystin precipitation): reduced
  interaction of PP1 with PNUTS or NIPP1: without any effect; also recorded: no effect
CEM cells [7]
  cytotoxicity / toxicity in T cells: not cytotoxic
[8]
  PP1α-EGFP co-precipitated with Tat: reduced; also recorded: prevents the interaction
  association of Tat with CDK9/cyclin T1: no effect
[2]; 293T cells, nuclear fraction, vs untreated or 1G3
  nuclear PP1α-EGFP fluorescence: significant decrease
[2]; HeLa cells, 10 μM, 18 hours
  nuclear localization of PP1α in the presence of Tat: drastically diminished; also recorded: disrupts
CEM cells [3]; [12]
  IC50: > 25 µM
CEM cells [3]; [10]
  IC50: 30 µM
[4]; Human immunodeficiency virus 1, HEK-293T, read-out: Inhibition Tat-induced HIV transcription in 293T cells, IC50
  IC50: 5 µM
PP1α
  effect on PP1 enzymatic activity (Vmax and Km, KT(pT)IRR peptide): minimal effect; also recorded: no effect
PP1α; 1H4 300 μM, without compound V0=1.4
  initial velocity V0 of KT(pT)IRR peptide dephosphorylation by PP1α: 1.3 μM·min^−1
293T cells
  effect on cellular proteome: did not significantly change

## CCC(c1nnc(SCC(=O)Nc2ncc(-c3ccc(F)cc3)s2)n1Cc1ccccc1)N(C)C (stereo not drawn) [T5251659]
[5]; [11]
  IC50: 10 µM
CEM cells [3]; [12]
  IC50: 6 µM

## CCN(CC)S(=O)(=O)c1ccc2c(c1)nc(CCC(=O)N(C)c1ccc(C(F)(F)F)cc1)n2C [T5326526]
[5]; [11]
  IC50: 15 µM
CEM cells [3]; [12]
  IC50: 10 µM

## CC(OC(=O)c1ccccc1SCC(=O)Nc1ccc2c(c1)OCO2)C(=O)NCCC1=CCCCC1 (stereo not drawn) [T5369370]
[5]; [11]
  IC50: 10 µM
CEM cells [3]; [12]
  IC50: 15 µM

## O=S(=O)(Nc1ccc(S(=O)(=O)N2CCC(Cc3ccccc3)CC2)cn1)c1ccccc1 [T5481237]
[5]; [11]
  IC50: 15 µM
CEM cells [3]; [12]
  IC50: 20 µM

## O=C(CNC(=O)c1ccccc1SCC(=O)NC12CC3CC(CC(C3)C1)C2)Nc1ccc(Cl)cc1 [T5498680]
[5]; [11]
  IC50: 5 µM
CEM cells [3]; [12]
  IC50: 5 µM

## CN(C1CCCCC1)S(=O)(=O)c1ccc(NC(=O)COc2ccccc2-c2ccccc2)cc1 [T5551920]
[5]; [11]
  IC50: 15 µM
CEM cells [3]; [12]
  IC50: 15 µM

## C=C1[C@@H](O)[C@@H]2O[C@]3(CC[C@H](/C=C/[C@@H](C)[C@@H]4CC(C)=C[C@@]5(O[C@H](C[C@@](C)(O)C(=O)O)CC[C@H]5O)O4)O3)CC[C@H]2O[C@@H]1[C@@H](O)C[C@H](C)[C@H]1O[C@@]2(CCCCO2)CC[C@H]1C [okadaic acid, reference compound]
EBOV VP30
  VP30 phosphorylation: increased

From patent US9447047B2 (priority 2012, dated 2016)
